Laboratory results as given in publication PMC6130598, “Isolation, characterization, and in silico, in vitro and in vivo antiulcer studies of isoimperatorin crystallized from Ostericum koreanum” (Pharmaceutical Biology, 2016).

Biological target: jack bean urease (Canavalia ensiformis, UniProt P07374)
Assay: colorimetric urease inhibition assay (phenol/hypochlorite ammonia detection, […] nm)
Type: biochemical

Sequence of jack bean urease (P07374 whole entry, looked up): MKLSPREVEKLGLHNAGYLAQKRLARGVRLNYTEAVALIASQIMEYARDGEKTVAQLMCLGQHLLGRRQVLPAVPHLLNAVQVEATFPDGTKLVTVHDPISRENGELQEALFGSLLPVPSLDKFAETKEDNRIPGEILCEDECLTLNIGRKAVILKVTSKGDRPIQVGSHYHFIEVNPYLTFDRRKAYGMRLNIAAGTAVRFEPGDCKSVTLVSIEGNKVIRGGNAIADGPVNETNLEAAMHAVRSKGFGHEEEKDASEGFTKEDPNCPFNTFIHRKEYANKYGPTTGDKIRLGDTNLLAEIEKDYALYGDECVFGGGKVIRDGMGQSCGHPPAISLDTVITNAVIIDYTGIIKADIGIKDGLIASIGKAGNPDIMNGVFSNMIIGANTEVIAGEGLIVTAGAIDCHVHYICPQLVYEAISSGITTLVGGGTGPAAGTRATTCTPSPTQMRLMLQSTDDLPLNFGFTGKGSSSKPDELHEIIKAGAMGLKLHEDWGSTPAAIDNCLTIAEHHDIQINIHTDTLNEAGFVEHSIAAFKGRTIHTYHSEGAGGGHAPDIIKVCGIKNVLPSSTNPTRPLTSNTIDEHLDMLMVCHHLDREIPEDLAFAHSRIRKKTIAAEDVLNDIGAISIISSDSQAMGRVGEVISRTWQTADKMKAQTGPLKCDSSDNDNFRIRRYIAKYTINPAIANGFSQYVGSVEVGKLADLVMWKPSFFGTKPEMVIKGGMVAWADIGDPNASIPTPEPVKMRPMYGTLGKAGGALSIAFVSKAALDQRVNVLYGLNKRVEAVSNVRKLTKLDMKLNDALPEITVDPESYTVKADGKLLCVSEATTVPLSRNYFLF

Structure (SMILES) | IC50 [µM]
CC(C)=CCOc1c2ccoc2cc2oc(=O)ccc12 [isoimperatorin] | 36.4
NC(N)=S [thiourea] | 33.6
